Measurements: ChEMBL document CHEMBL4052810, “Synthesis and evaluation of vitamin D3 analogues with C-11 modifications as inhibitors of Hedgehog signaling” (Bioorg Med Chem Lett, 2017)

Columns and labels:
[1] = target: T1, Cyp24A1 mRNA (readout of VDR activation) (Mus musculus, UniProt P48281); assay: Activation of VDR in mouse C3H10T1/2 cells assessed as change in Cyp24A1 mRNA expression at 5 uM after 24 hrs by q-PCR analysis relative to control; format: ADME, cell-based; settings: read-out: FC
T1 sequence (P48281 whole entry): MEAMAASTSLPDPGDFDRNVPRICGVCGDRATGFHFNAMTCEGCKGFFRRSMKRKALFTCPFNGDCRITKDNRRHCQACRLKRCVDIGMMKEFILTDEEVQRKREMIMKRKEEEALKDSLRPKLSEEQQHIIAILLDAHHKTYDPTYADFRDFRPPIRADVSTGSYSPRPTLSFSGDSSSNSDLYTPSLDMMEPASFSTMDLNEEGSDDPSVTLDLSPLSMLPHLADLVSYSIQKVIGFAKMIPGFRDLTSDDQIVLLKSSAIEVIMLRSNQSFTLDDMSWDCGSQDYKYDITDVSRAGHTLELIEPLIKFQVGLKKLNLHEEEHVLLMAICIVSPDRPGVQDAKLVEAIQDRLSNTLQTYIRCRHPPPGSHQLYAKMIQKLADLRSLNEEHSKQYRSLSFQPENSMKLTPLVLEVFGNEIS

Mus musculus [2] = species on record: Mus musculus; assay: Inhibition of Hedgehog signaling pathway in mouse C3H10T1/2 cells assessed as reduction in oxysterol-induced Gli1 mRNA expression at 5 uM after 24 hrs by q-PCR analysis relative to oxysterol alone; format: cell-based
[3] = target: T1, Cyp24A1 mRNA (readout of VDR activation); assay: Activation of VDR in mouse ASZ001 cells assessed as change in Cyp24A1 mRNA expression at 5 uM after 24 hrs by q-PCR analysis relative to control; format: ADME, cell-based; settings: read-out: FC
Mus musculus [4] = species on record: Mus musculus; assay: (§1) Inhibition of Hedgehog signaling pathway in mouse C3H10T1/2 cells assessed as reduction in oxysterol-induced Gli1 mRNA expression after 24 hrs by q-PCR analysis; format: cell-based
[5] = as §1; format: cell-based; settings: C3H 10T1/2, 24 h
[6] = Inhibition of Hedgehog signaling pathway in mouse ASZ001 cells assessed as reduction in oxysterol-induced Gli1 mRNA expression after 24 hrs by q-PCR analysis; format: cell-based; settings: ASZ001, 24 h

Structure (SMILES) | fold induction at 24 h, 5 µM [1] | inhibition (Mus musculus [2]) [%] | fold induction at 24 h, 5 µM [3] | inhibition (Mus musculus [4]) | IC50 [5] [nM] | IC50 [6] [µM]
CC(C)CCC[C@@H](C)[C@H]1CC[C@H]2[C@@H](OC(=O)c3cccc(O)c3)C[C@H](c3ccccc3)C[C@]12C | 2.3 | 71 |  |  |  | 
C#CCCC(=O)OCC[C@H]1C[C@H](OC(=O)c2cccc(O)c2)[C@@H]2CC[C@H]([C@H](C)CCCC(C)C)[C@@]2(C)C1 | 4.8 | 16 | 0.96 | Dose-dependent effect | 6300 | 7.5
C=C[C@H]1CC(=O)[C@@H]2CC[C@H]([C@H](C)CCCC(C)C)[C@@]2(C)C1 | 19 | 28 |  |  |  | 
CC(C)CCC[C@@H](C)[C@H]1CC[C@H]2[C@@H](OC(=O)c3cccc(O)c3)C[C@H](CCO)C[C@]12C | 9 | 8.7 | 1.1 | Dose-dependent effect | 2000 | 4.1
CC(C)CCC[C@@H](C)[C@H]1CC[C@H]2[C@@H](OC(=O)c3cccc(O)c3)C[C@H](C3CCCCC3)C[C@]12C | 2.8 | 92 |  |  |  | 
CC(C)CCC[C@@H](C)[C@H]1CC[C@H]2[C@@H](OC(=O)c3cccc(O)c3)C[C@H](Cc3ccccc3)C[C@]12C | 3.6 | 85 |  |  |  | 
CC(C)CCC[C@@H](C)[C@H]1CC[C@H]2[C@@H](Nc3ccc(O)cc3)C[C@H](CCO)C[C@]12C | 7.2 | 1.1 | 2 | Dose-dependent effect | 2700 | 1
CC[C@@H]1C[C@H](OC(=O)c2cccc(O)c2)[C@@H]2CC[C@H]([C@H](C)CCCC(C)C)[C@@]2(C)C1 | 3.6 | 2 | 1.3 | Dose-dependent effect | 920 | 5.2
CC(C)CCC[C@@H](C)[C@H]1CC[C@H]2[C@@H](O)C[C@H](CCO)C[C@]12C | 17 | 39 |  | Dose-dependent effect | 4700 | 
